In patent US8293786B2 (Alltranz Inc., priority 2007, dated 2012):
Entries after “also recorded” stand apart in the source; their conditions may differ. Structures can show the parent of a compound that is named as a salt.

Key:
[1] = tested on: human abdominal skin; test: In vitro human skin permeation and skin disposition, flow-through diffusion cells (Example 1); assay type: in vitro ADME; details: for 36 h skin conc.: Table 14, in propylene glycol
Description: Flow through diffusion cells were used for the permeation studies. HEPES-buffered Hanks' balanced salts containing 40% (polyethylene glycol) PEG 400 with gentamicin was used for the receiver compartment. Donor solution was comprised of either 100% propylene glycol (PG) solution or a rubbed in gel formulation. […] Drug accumulation in the skin after a 24 or 36 h diffusion experiment was determined as μmol/g wet tissue weight.
(§1) The skin samples used in the following experiments were obtained from abdominal reduction surgery and dermatomed to a thickness of approximately 200 μm. The skin samples used herein were frozen at −20° C. for less than six months.
1 L of receiver fluid was prepared by measuring 1 L of nanopure water into a graduated cylinder. 90% of the water was added to an Erlenmeyer flask. Hanks' salts (1 bottle) were added to the water along with 5.96 g of HEPES and 0.35 g of sodium bicarbonate. The pH of the solution was adjusted with 1 N sodium hydroxide solution to pH 7.4. The remaining water was added and the receiver fluid was filtered through a 0.2μ filter (Millipore, Billerica, Mass.). 50 mg of gentamicin was added to the filtered receiver fluid and 400 mL of the receiver fluid was removed and replaced with 400 mL of PEG 400.
Two different formulations were used for charging the donor compartment. Drugs were made up in either 100% PG or a gel formulation. For the PG solution, approximately 50-120 mg of the appropriate drug was weighed into a glass silanized culture tube. The gel formulation resulted from the mixing of absolute ethanol, nanopure water, IPM, Carbopol® 980, 0.1 N aqueous sodium hydroxide solution and the respective drug.
Dermatomed skin harvested from abdominoplasty, stored at −20° C., was used for the experiments. A PermeGear flow-through (In-Line, Riegelsville, Pa.) diffusion cell system was used for the skin permeation studies.
(§2) Diffusion cells were kept at 32° C. with a circulating water bath. Human epidermal skin was arranged in the diffusion cell with stratum corneum (upper layer of skin) facing the donor compartment. Permeation area of the skin was 0.95 cm^2. Data was collected from a human skin donor with three to four diffusion cells per treatment.
Receiver solution was HEPES-buffered Hanks' balanced salts with gentamicin containing 40% PEG 400 at a pH of 7.4 and flow rate was adjusted to 0.8 mL/h. Each cell was charged with 0.050 mL of the respective drug formulation (donor solution) or with 0.035 mL of gel formulation which was rubbed into the skin for 15 sec with a Teflon coated rod. The formulation was applied to ensure complete coverage. Diffusion cells were covered with a cap for the duration of the study.
(§3) Samples were collected into scintillation vials in 3 h increments for either 24 h or 36 h. All the samples were stored at 4° C. until extracted. An aliquot (0.5 mL) of the diffusion sample was placed into a silanized HPLC vial and 0.5 mL of acetonitrile was added to the sample, capped and vortexed.
At the end of the experiment, the skin tissue was removed from the diffusion cell, rinsed with nanopure water, and blotted dry with a paper towel. The skin was tape stripped twice using book tape (Scotch™, 3M, St. Paul, Minn.) to remove drug formulation adhering to the tissue surface. The area of skin in contact with the drug was cut out, chopped up and placed in a pre-weighed scintillation vial. Ten mL of acetonitrile was added to the vial and drug was extracted from the skin by shaking at room temperature overnight. The following day a 0.1 mL aliquot was removed and diluted with an additional 0.9 mL of acetonitrile. The diluted sample was added to the silanized HPLC vial for analysis.
At the end of the experiment, a 0.01 mL aliquot of the PG donor solution was removed and added to a scintillation vial containing 10 mL of acetonitrile. The vials were vortexed and then sonicated for 15 min. An aliquot of 1 mL was removed and transferred into a silanized HPLC vial for analysis.

[2] = tested on: human abdominal skin; test: In vitro human skin permeation and skin disposition, flow-through diffusion cells (Examples 2, 2A, 2B); assay type: in vitro ADME; details: for 24 h skin conc / 24 h cumulative amt / Flux / Lag time / Flux enhancement: 40% aqueous PEG 400 receiver fluid; for Flux enhancement: total cannabidiol versus cannabidiol
Description: Flow through diffusion cells were used for the permeation studies. HEPES-buffered Hanks' balanced salts containing 40% PEG 400 with gentamicin or 40% aqueous PEG 400 with gentamicin were used for the receiver compartment. Donor solution was comprised of 90:8:2 PG:H2O:IPM solution or gel formulation. […] Drug accumulation in the skin after a 24, 30 or 42 h diffusion experiment was determined as μmol/g wet tissue weight.
as §1
One (1) L of receiver fluid was prepared by measuring 1 L of nanopure water into a graduated cylinder. 90% of the water was added to an Erlenmeyer flask. Hanks' salts (1 bottle) were added to the water along with 5.96 g of HEPES and 0.35 g of sodium bicarbonate. The pH of the solution was adjusted with 1 N sodium hydroxide solution to pH 7.4. The remaining water was added and the receiver fluid was filtered through a 0.2μ filter (Millipore, Billerica, Mass.). Fifty (50) mg of gentamicin was added to the filtered receiver fluid and 400 mL of the receiver fluid was removed and replaced with 400 mL of PEG 400.
The receiver fluid was prepared by measuring 600 mL of nanopure H2O into a graduated cylinder. The H2O was filtered through a 0.2μ filter (Millipore, Billerica, Mass.). Fifty (50) mg of gentamicin was added to the filtered H2O and 400 mL of PEG 400 was added.
The prodrugs were made up in a solution of 45:4:1 PG:H2O:IPM. For this solution, the appropriate amount of drug was weighed into a glass silanized culture tube and IPM was added, the 50 μL of PG to coat the drug, then an additional 247 μL PG was added and the donor solution was vortexed again. Finally 26 μL of water was added. The gel formulation resulted from the mixing of absolute ethanol, nanopure water, IPM, Carbopol® 980, 0.1 N sodium hydroxide solution and the respective drug.
The gel formulation was comprised of absolute ethanol, nanopure water, IPM, Carbopol® 980, 0.1 sodium hydroxide solution and respective drug. The anhydrous gel was comprised of absolute ethanol, PEG monoethyl ether 550, Klucel® hydroxypropylcellulose, and respective drug.
Dermatomed skin harvested from abdominoplasty, stored at −20° C., was used for the experiments. A PermeGear flow-through (In-Line, Hellertown, Pa.) diffusion cell system was used for the skin permeation studies.
as §2, with “The permeation” for “Permeation”, “The data” for “Data”, “three” for “three to four”
The receiver solution was HEPES-buffered Hanks' balanced salts with gentamicin containing 40% PEG 400 at a pH of 7.4 or 40% aqueous PEG 400 and flow rate was adjusted to 0.8 mL/h. Each cell was charged with 0.10 mL of the respective drug formulation (donor solution) or 50 μL of gel formulation which was rubbed into the skin for 15 sec with a Teflon coated rod. The formulation was applied to ensure complete coverage. […]. Diffusion cells were covered with a stopper or cap for the duration of the study.
as §3, with “24, 30,” for “24 h”, “42” for “36”
At the end of the experiment, the skin tissue was removed from the diffusion cell, rinsed with nanopure water, and blotted dry with a paper towel. The skin was tape stripped twice using book tape (Scotch™, 3M, St. Paul, Minn.) to remove drug formulation adhering to the tissue surface.

[3] = Table 19, gel formulation, CBD from applied prodrug
[4] = Table 19, gel formulation, as applied compound (CBD or intact prodrug)
[5] = Table 19, gel formulation, prodrug applied, as total cannabidiol equivalents
[6] = Table 21, gel formulation, CBD from applied prodrug
[7] = Table 21, gel formulation, as applied compound (CBD or intact prodrug)
[8] = Table 21, gel formulation, prodrug applied, as total cannabidiol equivalents
[9] = in an anhydrous gel formulation
[10] = Table 23, gel formulation, CBD from applied prodrug

C=C(C)C1CCC(C)=CC1c1c(OC(=O)CCOCC)cc(CCCCC)cc1OC(=O)CCOCC (stereo not drawn) [ALL00103]
found in the skin disposition (tissue) samples ([1]; Example 1): Some intact prodrug was found in the skin samples but very little cannabidiol was detected | 36 h skin conc. ([1]; as applied compound (CBD or intact prodrug)): 9.7 ± 1.0 µmol/g | 36 h skin conc. ([1]; prodrug applied, as total CBD equivalents): 9.7 ± 1.0 µmol/g | permeation through the skin ([1]; both the PG donor solution and gel formulation): did not permeate (or were below LOD)

C=C(C)C1CCC(C)=CC1c1c(O)cc(CCCCC)cc1OC(=O)CN(C)C (stereo not drawn) [ALL00148, CBD N,N-dimethylglycinate]
24 h skin conc [2, 3]: 2.4 ± 2.1 µmol/g | 24 h cumulative amt [2, 4]: 8.0 ± 1.8 nmol | 24 h skin conc [2, 4]: 20.8 ± 21.1 µmol/g | Flux [2, 4]: 0.5 ± 0.1 nmol/cm^2/h | Lag time [2, 4]: 7.6 ± 2.1 h | 24 h cumulative amt [2, 5]: 8.0 ± 1.8 nmol | 24 h skin conc [2, 5]: 23.2 ± 23.2 µmol/g | Flux [2, 5]: 0.5 ± 0.1 nmol/cm^2/h | Lag time [2, 5]: 7.6 ± 2.1 h | Flux enhancement ([2]; Table 19, gel formulation): 0.63 | detected in the skin as ([2]; in gel formulation): mostly intact prodrug and small amounts of cannabidiol | flux compared to cannabidiol ([2]; in gel formulation): did not increase the flux | lag time compared to cannabidiol ([2]; in gel formulation): similar | permeated through the skin as ([2]; in gel formulation): intact prodrug only | total skin concentrations compared to cannabidiol ([2]; in gel formulation): higher

C=C(C)C1CCC(C)=CC1c1c(O)cc(CCCCC)cc1OC(=O)CCN(C)C (stereo not drawn) [ALL00150, CBD 3-(dimethylamino)propionate]
24 h skin conc [2, 6]: 7.9 ± 2.3 µmol/g | 24 h skin conc [2, 7]: 47.7 ± 3.0 µmol/g | 24 h skin conc [2, 8]: 55.6 ± 5.3 µmol/g | 24 h skin conc ([2]; Table 22, anhydrous gel formulation, CBD from applied prodrug): 1.1 ± 0.8 µmol/g | 24 h skin conc ([2]; Table 22, anhydrous gel formulation, as applied compound (CBD or intact prodrug)): 5.6 ± 3.1 µmol/g | 24 h skin conc ([2]; Table 22, anhydrous gel formulation, prodrug applied, as total cannabidiol equivalents): 6.7 ± 3.8 µmol/g | concentrations in the skin, anhydrous gel formulation compared to the ethanol based gel formulation ([2]; anhydrous gel versus ethanol based gel): much lower | detected in the skin as [2, 9]: ALL00150 and cannabidiol | permeation through the skin [2, 9]: did not permeate through the skin | total skin concentrations compared to cannabidiol [2, 9]: higher | detected in the skin as ([2]; in gel formulation): primarily ALL00150 with a small amount of cannabidiol | permeated through the skin as ([2]; in gel formulation): did not permeate through the skin | total skin concentrations compared to cannabidiol ([2]; in gel formulation): higher

C=C(C)[C@@H]1CCC(C)=C[C@H]1c1c(O)cc(CCCCC)cc1OC=O [ALL00146, CBD Formate]
24 h cumulative amt [2, 3]: 10.7 ± 0.5 nmol | 24 h skin conc [2, 3]: 0.8 ± 0.1 µmol/g | Flux [2, 3]: 0.8 ± 0.1 nmol/cm^2/h | Lag time [2, 3]: 9.1 ± 0.9 h | 24 h cumulative amt [2, 4]: 4.0 ± 0.0 nmol | 24 h skin conc [2, 4]: 3.3 ± 0.5 µmol/g | Flux [2, 4]: 0.3 ± 0.0 nmol/cm^2/h | Lag time [2, 4]: 7.0 ± 0.0 h | 24 h cumulative amt [2, 5]: 12.7 ± 2.3 nmol | 24 h skin conc [2, 5]: 4.1 ± 0.4 µmol/g | Flux [2, 5]: 0.9 ± 0.1 nmol/cm^2/h | Lag time [2, 5]: 8.9 ± 1.1 h | Flux enhancement ([2]; Table 19, gel formulation): 1.09 | 24 h cumulative amt [2, 6]: 2.7 ± 1.4 nmol | 24 h skin conc [2, 6]: 3.7 ± 2.1 µmol/g | Flux [2, 6]: 0.2 ± 0.1 nmol/cm^2/h | Lag time [2, 6]: 9.8 ± 3.7 h | 24 h skin conc [2, 7]: 16.0 ± 9.8 µmol/g | 24 h cumulative amt [2, 8]: 2.7 ± 1.4 nmol | 24 h skin conc [2, 8]: 19.7 ± 11.9 µmol/g | Flux [2, 8]: 0.2 ± 0.1 nmol/cm^2/h | Lag time [2, 8]: 9.8 ± 3.7 h | Flux enhancement ([2]; Table 21, gel formulation): 0.53 | 24 h cumulative amt [2, 10]: 5.9 nmol | Flux [2, 10]: 0.26 nmol/cm^2/h | Lag time [2, 10]: 0.4 h | detected in the skin as ([2]; in gel formulation): intact prodrug and cannabidiol; also recorded: small amount of cannabidiol with the remaining being prodrug | flux compared to cannabidiol ([2]; in gel formulation): did slightly increase the flux; also recorded: didn't increase the flux
